# “And” between values parts separate entries of the source, which are not always exact repeats. Equal values may be shown once.
# Tests used:
# Archaeoglobus fulgidus = experiment: Screening for hydrocarbon degradation, A. fulgidus (sulphide production, Cord-Ruwish); format: cell-based; conditions: for sulphide production (OD 480) 0 d: aromatics solubilized in HMN; for ΔS tf-ti: final minus initial sulphide
# Procedure: (§1) Experimentally, 4 ml of Cord-Ruwish reagent comprising 50 mmol/l of HCl and 5 mmol/l of CuSO4 are added to 0.1 ml of sample. Copper sulphate (CuSO4) by reacting with hydrogen sulphide (H2S), forms a copper sulphide precipitate (CuS) after the reaction: CuSO4+H2S→CuS+H2SO4
# (§2) According to this method, the CuS is assayed by spectrophotometry at 480 nm. The readings are carried out against a blank constituted by 4 ml of Cord-Ruwish reagent.
# (§3) The study of the hydrocarbon degradation abilities is an experiment which requires a particularly long incubation. Thus, it was carried out in Bellco tubes sealed with thick rubber stoppers.
# (§4) For these experiments, tubes containing 10 ml of culture medium without substrate, are 10% inoculated, then the hydrocarbon is introduced by injection through the stopper.
# (§5) The hydrocarbons chosen are model molecules belonging to the different classes of hydrocarbons, namely: • hexadecane (CH3(CH2)14CH3, C16), a saturated linear aliphatic hydrocarbon; • hexadecene (CH3(CH2)13CHCH2, C16:1), an unsaturated linear aliphatic hydrocarbon of biogenic origin; • dibenzothiophene (DBT, C12H8S), a sulphur-containing aromatic hydrocarbon.
# (§6) The aliphatic hydrocarbons (C16; C16:1) are added to the corresponding tubes, at a rate of 0.04 ml/10 ml of culture medium. The aromatic hydrocarbons (DBT) are solubilized in 2,2,4,4,6,8,8-heptamethylnonane (HMN, C16H34) at a rate of 20 mg/ml of HMN, and 0.75 ml of this solution is injected into 10 ml of culture medium.
# (§7) 3 tubes were produced for each test and control. The growth of the strains was monitored indirectly by the production of sulphide.
# (§8) A subculture was carried out starting from the preceding experiment on naphthalene, DBT solubilized as previously in HMN, and on HMN alone, for the two strains studied.
# strain L-3 [1] = experiment: Sources of carbon and energy used by the strain L-3; format: cell-based, Archaeoglobus fulgidus CNCM I-3465 (strain L-3); conditions: for OD 580 nm Final / OD 580 nm Initial / H2S (480 nm): thiosulphate as electron acceptor; for HPLC analyses, initial quantity of the substrate: no increase in biomass or sulphide, explained by isomerization at high temperature
# Procedure: as §1, §2
# (§9) The analysis and quantification of the metabolites are carried out by HPLC by measuring the disappearance of the substrate and the appearance of different metabolism products.
# The study of the growth of the strain L-3 in the presence of different sources of carbon and energy was carried out with thiosulphate as an electron acceptor. The monitoring was carried out by estimation of the cell biomass (OD 580 nm), by assay of the sulphide production (Cord-Ruwish). The results were confirmed by HPLC analyses, and completed in certain cases by a CO2 assay.
# A. fulgidus = experiment: Subculture on hydrocarbons, A. fulgidus (sulphide production); format: cell-based, Archaeoglobus fulgidus
# Procedure: as §1, §2, §8
# (§10) For this subculture, apart from the tests containing the hydrocarbon (DBT, naphthalene (Naph), […]), and seeded with the previously chosen inoculum, abiotic controls (negative controls) containing the substrate (hydrocarbon) but not inoculated were produced for the purpose of quantifying the sulphide production which could be due to chemical reactions between the different constituents of the medium. In these controls there was no development in the concentration of sulphide over a period of 20 days (Table 4).
# strain L-3 [2] = experiment: Screening for hydrocarbon degradation, strain L-3 (sulphide production, Cord-Ruwish); format: cell-based, Archaeoglobus fulgidus CNCM I-3465 (strain L-3)
# Procedure: as §1, §2, §3, §4, §5, §6, §7, §8
# strain L-3 [3] = experiment: Subculture on hydrocarbons, strain L-3 (sulphide production); format: cell-based, Archaeoglobus fulgidus CNCM I-3465 (strain L-3)
# Procedure: as §1, §2, §8, §10
# [4] = test system: Archaeoglobus fulgidus (DSM 4304); experiment: Degradation of different substrates by A. fulgidus as a function of the electron acceptor; format: cell-based
# Procedure: as §1, §2, §9
# (§11) The study of the degradation abilities of different substrates of the strain L-3 was based on a comparison with the collection strain, Archaeoglobus fulgidus (DSM 4304). The degradation of the substrates, by the two strains was monitored by a measurement of the cell biomass at 580 nm, a sulphide assay produced according to the Cord-Ruwish method, a study of the degradation metabolites by HPLC, completed by a CO2 assay with a GPC-Katharometer.
# (§12) Two series of tests were prepared, one with thiosulphate, the other with sulphate as an electron acceptor.
# strain L-3 [5] = experiment: Degradation of different substrates by the strain L-3 as a function of the electron acceptor; format: cell-based, Archaeoglobus fulgidus CNCM I-3465 (strain L-3); parameters: total H2S: unit not given here
# Procedure: as §1, §2, §9, §11, §12
# [6] = choice of the inoculum for the subculture, tubes of the screening
# [7] = thiosulphate as electron acceptor
# [8] = thiosulphate or sulphate as electron acceptor
compound,measurement,setting,value
hexadecene [C16:1],sulphide production (OD 480) 0 d,Archaeoglobus fulgidus,0.8 mM and 0.6 mM
same,sulphide production (OD 480) 45 d,Archaeoglobus fulgidus,3.6 mM and 4.3 mM
same,ΔS tf-ti,Archaeoglobus fulgidus,approximately 3 mM
same,ΔS tf-ti,Archaeoglobus fulgidus; listed as C16: 1,2.8 mM and 3.0 mM and 3.5 mM
CC(=O)O [Acetate],OD 580 nm Final,strain L-3 [1],0.0904 and 0.0812
same,OD 580 nm Initial,strain L-3 [1],0.0671 and 0.0771
same,H2S (480 nm),strain L-3 [1]; unit from b126,0.4 mM and 0.3 mM
Gelatin,OD 580 nm Final,strain L-3 [1],0.0743 and 0.0767
same,OD 580 nm Initial,strain L-3 [1],0.0629 and 0.0894
same,H2S (480 nm),strain L-3 [1]; unit from b126,0.3 mM and 0.2 mM
"CCC(=O)O [Propionate, propionate]",OD 580 nm Final,strain L-3 [1],0.0871 and 0.072
same,OD 580 nm Initial,strain L-3 [1],0.0669 and 0.0717
same,H2S (480 nm),strain L-3 [1]; unit from b126,0.3 mM
"c1ccc2ccccc2c1 [Naphthalene, naphthalene]",sulphide production (OD 480) 0 d,A. fulgidus; 0 d,0.2 mM
same,sulphide production (OD 480) 8 d,A. fulgidus; 8 d,0.8 mM and 0.4 mM and 0.5 mM
same,sulphide production (OD 480) 0 d,Archaeoglobus fulgidus,0.8 mM
same,sulphide production (OD 480) 10 d,Archaeoglobus fulgidus,0.4 mM and 0.6 mM and 0.8 mM
same,sulphide production (OD 480) 45 d,Archaeoglobus fulgidus,0.8 mM and 1.1 mM and 1.4 mM
same,sulphide production (OD 480) 60 d,Archaeoglobus fulgidus,0.7 mM and 1.2 mM
same,sulphide production (OD 480) 70 d,Archaeoglobus fulgidus; 70 d,1.3 mM and 1.7 mM
same,H2S,Archaeoglobus fulgidus; [6],1.3 mM and 1.7 mM
same,ΔS tf-ti,Archaeoglobus fulgidus,0.5 mM and 0.9 mM
same,sulphide production (OD 480) 0 d,"strain L-3 [2]; 0 d, aromatics solubilized in HMN",0.8 mM and 0.6 mM
same,sulphide production (OD 480) 10 d,strain L-3 [2]; 10 d,0.4 mM and 0.3 mM and 0.6 mM
same,sulphide production (OD 480) 45 d,strain L-3 [2],0.9 mM and 1 mM and 0.8 mM
same,sulphide production (OD 480) 60 d,strain L-3 [2],0.6 mM and 0.5 mM
same,sulphide production (OD 480) 70 d,strain L-3 [2],1.7 mM and 1.3 mM and 1.1 mM
same,H2S,strain L-3 [2]; [6],1.3 mM and 1.1 mM
same,sulphide production (OD 480) 0 d,strain L-3 [3]; 0 d,0.2 mM (2×) and 0.3 mM
same,sulphide production (OD 480) 8 d,strain L-3 [3]; 8 d,0.5 mM and 0.4 mM and 0.6 mM
same,sulphide production (OD 480) 22 d,strain L-3 [3]; 22 d,0.9 mM and 0.5 mM and 0.8 mM
same,sulphide production (OD 480) 45 d,strain L-3 [3]; 45 d,0.9 mM and 0.7 mM and 1.3 mM
same,ΔS tf-ti,strain L-3 [3]; final minus initial sulphide,0.7 mM and 0.5 mM and 1 mM
O=CO [Formate],final OD 580,[4]; sulphate as electron acceptor,0.1 and 0.1157
same,initial OD 580,[4]; sulphate as electron acceptor,0.0805 and 0.0853
same,total H2S,"[4]; sulphate as electron acceptor, unit from b116",3.6 mM and 5 mM
same,final OD 580,[4]; [7],0.1218 and 0.1208
same,initial OD 580,[4]; [7],0.1107 and 0.1183
same,total H2S,"[4]; thiosulphate as electron acceptor, unit from b116",5.8 mM and 7.4 mM
same,ability of Archaeoglobus fulgidus to oxidize the substrate,[4]; [8],capable of oxidizing
same,final OD 580,strain L-3 [5]; sulphate as electron acceptor,0.0711 and 0.064
same,initial OD 580,strain L-3 [5]; sulphate as electron acceptor,0.0585 and 0.0634
same,total H2S,strain L-3 [5]; sulphate as electron acceptor,2.5 and 5
same,final OD 580,strain L-3 [5]; [7],0.1048 and 0.1186
same,initial OD 580,strain L-3 [5]; [7],0.1003 and 0.1241
same,total H2S,strain L-3 [5]; [7],3.6 and 2.8
same,ability of the strain L-3 to degrade the substrate,strain L-3 [5]; [8],does not develop
same,OD 580 nm Final,strain L-3 [1],0.0672 and 0.0759
same,OD 580 nm Initial,strain L-3 [1],0.0765 and 0.0875
same,H2S (480 nm),strain L-3 [1]; unit from b126,0.2 mM and 0.4 mM
"O=C[C@H](O)[C@H](O)[C@H](O)CO [Ribose, ribose]","HPLC analyses, initial quantity of the substrate",strain L-3 [1],reduction in the initial quantity of the substrate
same,OD 580 nm Final,strain L-3 [1],0.3422 and 0.21
same,H2S (480 nm),strain L-3 [1]; unit from b126,0.6 mM and 0.5 mM
"O=C(CO)[C@@H](O)[C@H](O)[C@H](O)CO [Fructose, fructose]","HPLC analyses, initial quantity of the substrate",strain L-3 [1],reduction in the initial quantity of the substrate
same,OD 580 nm Final,strain L-3 [1],0.1003 and 0.0893
same,OD 580 nm Initial,strain L-3 [1],0.0663 and 0.0818
same,H2S (480 nm),strain L-3 [1]; unit from b126,0.3 mM
"CC(=O)C(=O)O [Pyruvate, pyruvate]",final OD 580,[4]; sulphate as electron acceptor,0.1643 and 0.1575
same,initial OD 580,[4]; sulphate as electron acceptor,0.1281 and 0.1377
same,total H2S,[4]; sulphate as electron acceptor,10.3 mM and 7.3 mM
same,final OD 580,[4]; [7],0.3668 and 0.3489
same,initial OD 580,[4]; [7],0.1368 and 0.1351
same,final OD 580,strain L-3 [5]; sulphate as electron acceptor,0.0958 and 0.0944
same,initial OD 580,strain L-3 [5]; sulphate as electron acceptor,0.0603 and 0.0636
same,total H2S,strain L-3 [5]; sulphate as electron acceptor,3.5 and 3.3
same,final OD 580,strain L-3 [5]; [7],0.1161 and 0.0863
same,initial OD 580,strain L-3 [5]; [7],0.0785 and 0.0911
same,total H2S,strain L-3 [5]; [7],4
same,H2S (480 nm),strain L-3 [1],5.2 mM
same,OD 580 nm Final,strain L-3 [1],0.1315 and 0.1758
same,OD 580 nm Initial,strain L-3 [1],0.067 and 0.0713
"c1ccc2c(c1)ccc1ccccc12 [Phenanthrene, phenanthrene]",sulphide production (OD 480) 10 d,Archaeoglobus fulgidus,1.1 mM and 0.8 mM and 1.4 mM
same,sulphide production (OD 480) 60 d,Archaeoglobus fulgidus,0.8 mM and 0.5 mM
same,ΔS tf-ti,Archaeoglobus fulgidus,≤ 0.5 mM
same,sulphide production (OD 480) 45 d,strain L-3 [2],0.5 mM and 1 mM and 0.8 mM
same,sulphide production (OD 480) 60 d,strain L-3 [2],0.4 mM and 0.5 mM and 0.3 mM
same,sulphide production (OD 480) 70 d,strain L-3 [2],0.5 mM and 0.6 mM and 0.8 mM
same,ΔS tf-ti,strain L-3 [2]; final minus initial sulphide,≤ 0.5 mM
